Several values for one entry are separate records, joined by “and”; a condition that tells them apart may be missing. Equal entries are not always repeated.
What was measured:
Type in all cases: cell-based, adenovirus
[1] = system: ONYX-015; assay: Real-time quantitative PCR, viral E1A copy number, ONYX-015 in H1299 cells; conditions: for E1A copy number, % (relative to 0 uM) / E1A copy number/ng DNA: ONYX-015 MOI 10, H1299, 24 hours
Experimental: (§1) Cells were seeded in 6-well plate (2 mL/well, 2×10^5 cells/well), and incubated with 5% CO2 at 37° C.
(§2) Viruses were diluted at a MOI of 10. Medium in each well was removed, 500 μL of diluted virus solution was added to each well of the plate. Plates were incubated with 5% CO2 at 37° C. for 2 hours with gently shaking every 15 minutes. Medium was aspirated, washed with PBS twice, and replaced with fresh medium containing 2% FCS and serially diluted CDV. Cells were incubated with 5% CO2 at 37° C. for 24 hours after infection.
(§3) Cells were detached with Trypsin-EDTA, and collected by centrifuging. Total DNA was extracted using QIAamp™ DNA Mini Kit according to manufacture's instructions with some modifications: addition of 20 μL of RNaseA in each sample when adding ProK. DNA was eluted by 50˜100 μL of D. W.
(§4) Concentration of DNA was determined by measuring O.D.260. Each DNA samples was diluted by D. W. at a concentration of 5 ng/μL.
(§5) Master-mix for E1A primer was prepared using LightCycler™ Faststart DNAMaster SYBR Green™ according to Table 1. Standard DNA was prepared by serially 10 times dilution of pCRII-E1A plasmid (1×10^9, 1×10^8, 1×10^7, 1×10^6, 1×10^5, 1×10^4, and 1×10^3 copies/μL). 2 μL of Sample or Standard DNA was and 18 μL of Master mix were added into capillaries (total volume was 20 μL per capillary).
(§6) Q-PCR was performed according to the program of Table 2 (LightCycler quicksystem 350S). Results obtained here were analyzed using LightCycler softwere.

[2] = system: TelomeScan (OBP-401); assay: Real-time quantitative PCR, viral E1A copy number, TelomeScan in H1299 cells; conditions: for E1A copy number, % (relative to 0 uM) / E1A copy number/ng DNA: TelomeScan MOI 10, H1299, 24 hours
Experimental: as §1, §2, §3, §4, §5, §6

[3] = system: TelomeScan (OBP-401); assay: XTT assay, protection from cytopathic effect of TelomeScan (OBP-401) in H1299 cells; conditions: for Protection (%) Ave. / Protection (%): OBP-401 MOI 0.1, H1299, 7 days; for Protection (%): single wells, dihydrate
Experimental: (§7) Cells frozen in liquid nitrogen were thawed in water bath at 37° C., seeded at T25 flask, and cultured at 70-90% sub-confluent monolayer. Cells were detached with trypsin, and prepared suspension at a concentration of 1.0×10^4 cells/ml.
(§8) Cells were seeded in 96 well-plate (100 μL/well, 1000 cells/well), then cultured with 5% CO2 at 37° C.
(§9) Viruses were diluted at MOI of 0.1 (OBP-401) or 10 (ONYX-015) in H1299. Medium in each well was removed, 50 μL of diluted virus solution was added to each well of the plate. 2 hours later, medium was aspirated and replaced with fresh medium containing 2% FCS and serially diluted CDV. Cells were incubated with 5% CO2 at 37° C. for 7 days after infection.
(§10) 100 μL of PBS, 50 μL of XTT labeling reagent, and 1 μL of ion coupling reagent per well of plate were mixed.
(§11) Medium in each well of plate was removed, and 150 μL of mixture prepared above was added to each well. Plate was incubated with 5% CO2 at 37° C. for 4 hours, and then calculated absorbance at 450 nm and 690 nm. Protection was determined by the formula below:
(§12) Protection(%)={OD(AdV(+):CDV(+))−OD(AdV(+):CDV(−))}/{OD(AdV(−):CDV(+))−OD(AdV(+):CDV(−))}×100.

[4] = system: ONYX-015; assay: XTT assay, protection from cytopathic effect of ONYX-015 in H1299 cells; conditions: for Protection (%) Ave. / Protection (%): ONYX-015 MOI 10, H1299, 7 days; for Protection (%): single wells, dihydrate
Experimental: as §7, §8, §9, §10, §11, §12

Compound: Nc1ccn(C[C@@H](CO)OCP(=O)(O)O)c(=O)n1.O.O [CDV, 1-[(S)-3-hydroxy-2-(phosphonomethoxy)propyl]cytosine dihydrate]
- E1A copy number, % (relative to 0 uM) ([1]; CDV 0.16 uM): 86.98%
- E1A copy number/ng DNA ([1]; CDV 0.16 uM): 2.291E+07 copy number/ng DNA
- E1A copy number, % (relative to 0 uM) ([1]; CDV 0.8 uM): 91.04%
- E1A copy number/ng DNA ([1]; CDV 0.8 uM): 2.398E+07 copy number/ng DNA
- E1A copy number, % (relative to 0 uM) ([1]; CDV 4 uM): 83.71%
- E1A copy number/ng DNA ([1]; CDV 4 uM): 2.205E+07 copy number/ng DNA
- E1A copy number, % (relative to 0 uM) ([1]; CDV 20 uM): 45.10%
- E1A copy number/ng DNA ([1]; CDV 20 uM): 1.188E+07 copy number/ng DNA
- E1A copy number, % (relative to 0 uM) ([1]; CDV 100 uM): 11.20%
- E1A copy number/ng DNA ([1]; CDV 100 uM): 2.950E+06 copy number/ng DNA
- Viral E1A copy number ([1]; ONYX-015, H1299 cells, dose-dependent manner): reduced
- E1A copy number, % (relative to 0 uM) ([2]; CDV 0.16 uM): 103.48%
- E1A copy number/ng DNA ([2]; CDV 0.16 uM): 2.350E+08 copy number/ng DNA
- E1A copy number, % (relative to 0 uM) ([2]; CDV 0.8 uM): 83.22%
- E1A copy number/ng DNA ([2]; CDV 0.8 uM): 1.890E+08 copy number/ng DNA
- E1A copy number, % (relative to 0 uM) ([2]; CDV 4 uM): 100.62%
- E1A copy number/ng DNA ([2]; CDV 4 uM): 2.285E+08 copy number/ng DNA
- E1A copy number, % (relative to 0 uM) ([2]; CDV 20 uM): 70.19%
- E1A copy number/ng DNA ([2]; CDV 20 uM): 1.594E+08 copy number/ng DNA
- E1A copy number, % (relative to 0 uM) ([2]; CDV 100 uM): 21.83%
- E1A copy number/ng DNA ([2]; CDV 100 uM): 4.957E+07 copy number/ng DNA
- Viral E1A copy number ([2]; TelomeScan, H1299 cells, dose-dependent manner): reduced
- Protection (%) Ave. ([3]; CDV 0.01 μM): −0.229%
- Protection (%) ([3]; CDV 0.01 μM): −1.063% and 0.309% and −0.240% and 0.080%
- Protection (%) Ave. ([3]; CDV 0.06 μM): 0.057%
- Protection (%) ([3]; CDV 0.06 μM): −0.423% and −0.514% and 1.589%
- Protection (%) Ave. ([3]; CDV 0.32 μM): 0.171%
- Protection (%) ([3]; CDV 0.32 μM): 0.400% and 0.674% and −0.789%
- Protection (%) Ave. ([3]; CDV 1.6 μM): 1.931%
- Protection (%) ([3]; CDV 1.6 μM): 3.006% and −0.057% and 2.594% and 2.183%
- Protection (%) Ave. ([3]; CDV 8 μM): 0.469%
- Protection (%) ([3]; CDV 8 μM): 3.280% and 0.263% and −0.743% and −0.926%
- Protection (%) Ave. ([3]; CDV 40 μM): 40.926%
- Protection (%) Ave. ([3]; CDV 200 μM): 15.154%
- Protection (%) Ave. ([3]; CDV 1000 μM): 1.463%
- Protection (%) ([3]; CDV 1000 μM): 0.446% and 0.537% and 3.554% and 1.314%
- cytopathic effect induced by TelomeScan ([3]; H1299 cells, FIG. 2A): apparently inhibited
- Protection (%) Ave. ([4]; CDV 0.01 μM): −1.092%
- Protection (%) ([4]; CDV 0.01 μM): −1.284% and −1.233% and −0.822% and −1.027%
- Protection (%) Ave. ([4]; CDV 0.06 μM): −0.642%
- Protection (%) ([4]; CDV 0.06 μM): −0.616% and −0.205% and 0.051% and −1.798%
- Protection (%) Ave. ([4]; CDV 0.32 μM): 1.516%
- Protection (%) ([4]; CDV 0.32 μM): 3.237% and 4.675% and −0.205% and −1.644%
- Protection (%) Ave. ([4]; CDV 1.6 μM): 2.646%
- Protection (%) ([4]; CDV 1.6 μM): 4.315% and 1.849% and −1.079% and 5.497%
- Protection (%) Ave. ([4]; CDV 8 μM): 5.703%
- Protection (%) Ave. ([4]; CDV 40 μM): 55.420%
- Protection (%) ([4]; CDV 40 μM): 50.912% and 58.926% and 55.536% and 56.306%
- Protection (%) Ave. ([4]; CDV 200 μM): 11.264%
- Protection (%) ([4]; CDV 200 μM): 10.121% and 16.902% and 9.350% and 8.682%
- Protection (%) Ave. ([4]; CDV 1000 μM): −0.783%
- Protection (%) ([4]; CDV 1000 μM): −2.312% and −2.260% and −2.363% and 3.802%
- cytopathic effect induced by ONYX-015 ([4]; H1299 cells, FIG. 2A): apparently inhibited

— US20090181931A1, “ANTIVIRAL ACTIVITY OF CIDOFOVIR AGAINST ONCOLYTIC VIRUSES” (priority 2008, published 2009)
